# From patent publication US6858589B2, “Methods of and compositions for potentiating the action of agents active on cell wall sites of the susceptible bacteria” (priority 1996, dated 2005)
# Tests used:
# [1] = tested on: blood culture isolate of cMRSA; test: Kill kinetics and regrowth patterns of cMRSA exposed to gentamicin profiles and constant beta-lactam; format: cell-based, Staphylococcus aureus
# Protocol: FIGS. 5a and 5b Kill kinetics and regrowth patterns of a clinical isolate of cMRSA.
# The CMRSA isolate was cultured in the presence of gentamicin (Delta West, Bentleigh, Australia). An overnight culture of cMRSA in brain heart infusion broth (BHIB) (Oxoid, Bainstoke, England) was diluted to 10^7 CFU/ml in 0.1% peptone water (Oxoid, Bainstoke, England). A 1 ml sample of the 10^7 CFU/ml culture was added to the experimental culture broth, resulting in an initial density of 10^6 CFU/ml. In vitro concentration-time modeling of clinical plasma gentamicin concentration-time profiles assumed linear extrapolation of in vivo data as reported previously.^18 (Bastone et al Antimicrobial Agents and Chemotherapy 37(4): 914-917, 1993). […] Other profiles were constructed by linear extrapolation of these profiles and included 7 and 16 mg/l bolus and infusion profiles. Colony counts were performed at times 0, 0.5, 2.5, 4.5, 6.5, 8.5, 10.5, 24.5 and 48.5 hours for bolus profiles and times 0, 1, 3, 5, 7, 9, 11, 25 and 49 hours for infusion profiles.
# In the experiments involving cephazolin the concentration was maintained at 4 mg/l in the BHIB for the entire 48.5 hours. For the experiments involving flucloxacillin the concentration of flucloxacillin was maintained at 2 mg/l for 48.5 hours. Colony counts were performed at times 0, 0,5, 2.5, 4.5, 6.5, 8.5, 10.5, 24.5 and 48.5 hours. […] These included cMRSA in a drug free broth, cMRSA exposed to a bolus profile of gentamicin with a target Cpeak 30 of 6 mg/l only, cMRSA exposed to […] of flucloxacillin only.
# All experiments involved six replicates. Gentamicin concentrations were measured at times 0, 0.16, 0.33, 0.5, 2.5, 4.5, 6.5, 8.5, 10.5, 24.5 and 48.5 hours. Gentamicin assay concentrations were determined by fluorescence polarisation immunoassay (AxSYM, Abbot, Ill., U.S.A.) which has a threshold for detection of 0.3 mg/liter. […] (Gibaldi et al, pharmaceutics 2nd edn, 1982).
# The blood culture cMRSA isolate was exposed to gentamicin in vitro simulating an in vivo bolus dosing regimen with varying 30 minute post dose concentrations of gentamicin. The same organism was then exposed to gentamicin in vitro simulating an in vivo bolus dosing regime with a 30 minute post dose concentration of 6 mg/l and constant concentration of 4 mg/l of cephazolin or 2 mg/l of flucloxacillin for 48 hours.
# [2] = tested on: blood culture isolate of cMRSA; test: MIC and MBC for the cMRSA isolate; format: cell-based, Staphylococcus aureus; settings: mecA positive
# Protocol: The student test was used for statistical analysis with a significant level of 0.05, it was performed using the Sigma Stat 32 program (SPSS Inc 1992-1997).
substance,measurement,setting,value
gentamicin,Outcome of exposure,[1]; each agent alone,complete kill or eradication was not achieved
same,Time at which regrowth phase began,"[1]; gentamicin bolus and infusion profiles, target Cpeak30 7 mg/l",24.5 h
same,Regrowth,"[1]; gentamicin bolus and infusion profiles, target Cpeak30 16 mg/l",no regrowth
same,Time at which early bactericidal effect was evident,"[1]; gentamicin only, bolus profile Cpeak30 6 mg/l",≤ 0.5 h
same,MBC,[2],4 µg/mL
same,MIC,[2],1 µg/mL
